Measured values: ChEMBL document CHEMBL5346897, “smProdrugs: A repository of small molecule prodrugs” (Eur J Med Chem, 2023)
In brackets after ≈: the same amount, converted by molar mass.

Assays:
[1] = Solubility of the compound; type: physicochemical
[2] = Lipophilicity, logP of the compound; type: physicochemical; conditions: octanol/water

`CCOC(=O)OC(C)OC(=O)[C@@H]1N2C(=O)[C@@H](NC(=O)[C@H](N)c3ccccc3)[C@H]2SC1(C)C` (some centres not stated) [BACAMPICILLIN] gave a solubility [1] of 123 µg/mL (≈ 264 µM) and a logP [2] of 0.88.
